In US12447170B2, “Use of maribavir in treatment regimens” (priority 2021, dated 2025):
Entries after “also recorded” stand apart in the source; their conditions may differ.

Legend:
CYP3A4 mRNA = assay: CYP induction (mRNA, qPCR) in fresh human hepatocytes; assay type: in vitro ADME
Procedure: Fresh human hepatocytes were treated with culture medium with maribavir concentrations of 36 μM, 144 μM, and 480 μM.
Positive controls were 50 μM omeprazole (CYP1A2), 1 mM phenobarbital (CYP2B6), and 50 μM rifampicin (CYP3A).
Incubation was conducted at 37° C. for 72 hours, with daily replacement of medium with compound. Total RNA was isolated, and cDNA was synthesized from up to 1 μg of total isolated RNA. Analysis of CYP expression was performed using qPCR with CYP-specific probes.
Half maximal effective concentration (EC50) and maximum effect (Emax) values for CYP3A4 mRNA induction were further determined by a concentration-response curve in three donors with maribavir at a concentration between 0-100 μM.

[1] = Observed clinical interaction of maribavir with rifampicin; assay type: in vivo, human; conditions: maribavir 400 mg BID with/without rifampicin 600 mg QD
Procedure: A comparison of observed and predicted plasma concentrations of maribavir following multiple oral doses of 400 mg administered in the absence of rifampicin and during concurrent treatment with rifampicin was performed. Subjects took maribavir 400 mg BID on Days 1-3 (5 doses), then rifampicin 600 mg QD on Days 4 through 12, followed by both maribavir 400 mg (BID) and rifampicin 600 mg QD on Days 13 and 14, with final doses of maribavir and rifampicin on the morning of Day 15.

[2] = Phase 2 studies for treatment of CMV infection/diseases: safety/tolerability; assay type: in vivo, human; conditions: doses up to 1200 mg BID
CYP2C19 [3] = biological target: T1, CYP2C19 (Homo sapiens, UniProt P33261); assay: Time-dependent CYP inhibition (IC50 shift, 30 minute pre-incubation with HLM +/- NADPH); assay type: in vitro ADME; design: from tissue; conditions: up to 100 μM
T1 sequence (P33261 whole entry): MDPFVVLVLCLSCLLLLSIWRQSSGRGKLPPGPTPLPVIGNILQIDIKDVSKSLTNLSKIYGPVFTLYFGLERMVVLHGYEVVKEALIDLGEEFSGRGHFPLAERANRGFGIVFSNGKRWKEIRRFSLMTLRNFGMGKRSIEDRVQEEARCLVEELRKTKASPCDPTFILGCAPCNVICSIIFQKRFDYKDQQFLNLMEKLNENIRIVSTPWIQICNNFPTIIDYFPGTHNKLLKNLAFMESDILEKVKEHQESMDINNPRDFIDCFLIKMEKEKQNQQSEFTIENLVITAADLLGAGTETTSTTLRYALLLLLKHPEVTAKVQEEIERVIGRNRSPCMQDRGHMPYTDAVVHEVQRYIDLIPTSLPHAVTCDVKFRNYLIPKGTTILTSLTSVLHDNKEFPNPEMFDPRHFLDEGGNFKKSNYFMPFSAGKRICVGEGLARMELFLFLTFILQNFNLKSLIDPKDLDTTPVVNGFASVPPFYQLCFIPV
Procedure: (§1) Time-dependent inhibition (TDI) potentials for various CYP enzymes were evaluated by a 30 minute pre-incubation of maribavir with HLM in the presence and absence of nicotinamide-adenine dinucleotide […] (NADPH) followed by a CYP enzyme activity assay.

CYP2C8 [4] = biological target: T2, CYP2C8 (Homo sapiens, UniProt P10632); assay: as above; assay type: in vitro ADME; design: from tissue; conditions: up to 100 μM
T2 sequence (P10632 1-490): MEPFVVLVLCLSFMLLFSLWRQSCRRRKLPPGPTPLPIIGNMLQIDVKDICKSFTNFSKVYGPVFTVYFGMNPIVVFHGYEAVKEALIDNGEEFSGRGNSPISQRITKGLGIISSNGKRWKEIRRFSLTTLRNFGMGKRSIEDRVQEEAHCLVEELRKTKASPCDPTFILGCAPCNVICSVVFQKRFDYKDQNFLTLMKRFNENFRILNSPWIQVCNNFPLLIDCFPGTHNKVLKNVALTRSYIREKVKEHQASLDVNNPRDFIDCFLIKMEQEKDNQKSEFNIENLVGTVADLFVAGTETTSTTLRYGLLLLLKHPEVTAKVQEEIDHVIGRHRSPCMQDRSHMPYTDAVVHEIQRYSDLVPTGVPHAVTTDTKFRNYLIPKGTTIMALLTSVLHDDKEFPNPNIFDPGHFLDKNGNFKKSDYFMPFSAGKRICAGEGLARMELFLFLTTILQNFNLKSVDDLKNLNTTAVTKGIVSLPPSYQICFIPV
Procedure: as §1

CYP1A2 = biological target: T3, CYP1A2 (Homo sapiens, UniProt P05177); assay: Reversible CYP inhibition in human liver microsomes (HLM); assay type: in vitro ADME; design: from tissue; host or cells: human liver microsomes
T3 sequence (P05177 1-516): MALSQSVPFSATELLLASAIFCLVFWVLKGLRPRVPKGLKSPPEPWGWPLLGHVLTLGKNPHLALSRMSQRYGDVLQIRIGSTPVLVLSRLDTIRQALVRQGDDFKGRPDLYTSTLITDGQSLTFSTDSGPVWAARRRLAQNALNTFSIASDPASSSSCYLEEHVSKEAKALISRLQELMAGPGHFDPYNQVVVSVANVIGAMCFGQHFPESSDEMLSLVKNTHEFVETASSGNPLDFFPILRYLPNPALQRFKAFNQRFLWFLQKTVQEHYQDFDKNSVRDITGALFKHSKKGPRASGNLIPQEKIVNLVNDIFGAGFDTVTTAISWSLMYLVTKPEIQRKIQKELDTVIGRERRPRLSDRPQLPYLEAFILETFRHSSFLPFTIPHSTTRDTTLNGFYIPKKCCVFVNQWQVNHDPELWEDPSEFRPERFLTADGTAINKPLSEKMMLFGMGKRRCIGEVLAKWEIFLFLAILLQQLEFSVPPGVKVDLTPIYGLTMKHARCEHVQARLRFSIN
Procedure: (§2) HLM were used to evaluate maribavir's half maximal inhibitory concentration (IC50) on inhibition of activities of nine CYP isoforms. Probe substrates were phenacetin (CYP1A2), coumarin (CYP2A6), bupropion (CYP2B6), paclitaxel (CYP2C8), tolbutamide (CYP2C9), (S)-mephenytoin (CYP2C19), dextromethorphan (CYP2D6), clorzoxazone (CYP2E1), and midazolam and testosterone (CYP3A4).
(§3) CYP activities with 0, 0.1, 0.3, 1, 3, 10, 30, and 100 μM of maribavir were evaluated.

CYP2C19 [5] = biological target: T1, CYP2C19; assay: as above; assay type: in vitro ADME; design: from tissue; host or cells: human liver microsomes
Procedure: as §2, §3

CYP2C8 [6] = biological target: T2, CYP2C8; assay: as above; assay type: in vitro ADME; design: from tissue; host or cells: human liver microsomes; conditions: up to 100 μM
Procedure: as §2, §3

CYP2C9 = CYP2C9 (Homo sapiens, UniProt P11712); assay: as above; assay type: in vitro ADME; design: from tissue; host or cells: human liver microsomes
Sequence of CYP2C9 (P11712 whole entry): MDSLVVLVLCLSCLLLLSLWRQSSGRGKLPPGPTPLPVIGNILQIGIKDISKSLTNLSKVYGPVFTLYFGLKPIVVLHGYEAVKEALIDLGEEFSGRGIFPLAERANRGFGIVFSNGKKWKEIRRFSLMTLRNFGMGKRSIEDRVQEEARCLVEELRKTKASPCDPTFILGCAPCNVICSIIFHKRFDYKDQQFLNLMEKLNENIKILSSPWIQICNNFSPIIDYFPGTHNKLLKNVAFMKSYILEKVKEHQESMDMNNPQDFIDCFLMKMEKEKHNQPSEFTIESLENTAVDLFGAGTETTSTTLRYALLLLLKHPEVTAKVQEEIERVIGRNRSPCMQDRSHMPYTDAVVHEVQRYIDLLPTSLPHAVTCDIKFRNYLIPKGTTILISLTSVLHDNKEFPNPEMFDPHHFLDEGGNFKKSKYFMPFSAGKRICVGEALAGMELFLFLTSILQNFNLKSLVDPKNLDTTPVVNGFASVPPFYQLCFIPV
Procedure: as §2, §3

CYP2D6 = CYP2D6 (Homo sapiens, UniProt P10635); assay: as above; assay type: in vitro ADME; design: from tissue; host or cells: human liver microsomes; conditions: up to 100 μM
Sequence of CYP2D6 (P10635 whole entry): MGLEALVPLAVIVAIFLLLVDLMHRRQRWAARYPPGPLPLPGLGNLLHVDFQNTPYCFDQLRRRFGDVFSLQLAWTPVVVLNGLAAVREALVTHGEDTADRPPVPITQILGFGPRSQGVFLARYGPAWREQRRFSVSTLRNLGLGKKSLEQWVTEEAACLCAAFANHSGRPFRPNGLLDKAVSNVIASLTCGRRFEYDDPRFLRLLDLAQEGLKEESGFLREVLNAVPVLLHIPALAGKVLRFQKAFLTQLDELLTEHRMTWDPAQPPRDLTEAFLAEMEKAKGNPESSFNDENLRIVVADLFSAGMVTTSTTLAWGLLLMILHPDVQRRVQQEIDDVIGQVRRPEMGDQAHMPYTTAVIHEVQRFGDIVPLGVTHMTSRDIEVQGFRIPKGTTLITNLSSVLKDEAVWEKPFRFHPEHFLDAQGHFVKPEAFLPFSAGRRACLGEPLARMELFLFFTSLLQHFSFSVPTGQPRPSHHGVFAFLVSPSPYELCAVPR
Procedure: as §2, §3

With `CC(C)Nc1nc2cc(Cl)c(Cl)cc2n1[C@H]1O[C@@H](CO)[C@H](O)[C@@H]1O` [maribavir, (2S,3S,4R,5S)-2-(5,6-dichloro-2-(isopropylamino)-1H-benzo[d]imidazol-1-yl)-5-(hydroxymethyl)tetrahydrofuran-3,4-diol] the “fold increase in CYP3A4 mRNA induction” value (CYP3A4 mRNA; 36 μM maribavir, human hepatocytes) was “greater than 14 fold”, the EC50 at 72 h (CYP3A4 mRNA; human) was over 5 µM and the “CYP3A4 mRNA induction, % of positive control (rifampicin) levels” value (CYP3A4 mRNA; human, hepatocytes, 72 h, 36 μM) was “greater than 30%”. For the same compound, the “Ratio AUC(0-12 h), observed Mean” value [1] was 0.41, the “Ratio C12 h, observed Mean” value [1] was 0.17 and the “Ratio Cmax, observed Mean” value [1] was 0.65. For the same compound, the safety/tolerability profile [2] was “no limiting toxicity”, the “time-dependent inhibition (TDI) of CYP2C19” value (CYP2C19 [3]) was “not a time-dependent inhibitor; also recorded: unlikely a TDI” and the “time-dependent inhibition (TDI) of CYP2C8” value (CYP2C8 [4]) was “not a time-dependent inhibitor; also recorded: unlikely a TDI”. For the same compound, the IC50 (CYP1A2) was 40 µM, the IC50 (CYP2C19 [5]) was 35 µM and the “reversible inhibition of CYP2C8” value (CYP2C8 [6]) was “not a reversible inhibitor; also recorded: no significant inhibition”. For the same compound, the IC50 (CYP2C9) was 18 µM and the “reversible inhibition of CYP2D6” value (CYP2D6) was “not a reversible inhibitor; also recorded: no significant inhibition”.
